In patent US9163063B2, “Peptides and nanoparticles for therapeutic and diagnostic applications” (Trustees of Dartmouth College, priority 2009, dated 2015):
Peptide text beside a SMILES is read from it. * marks the point of attachment. Benzoyl(4-Br) = O=C(c1ccc(Br)cc1)*; Myristoyl = CCCCCCCCCCCCCC(=O)*

Assays:
EGFR [1] = assay: Western blot of EGFR in AsPC1 cells; assay type: cell-based, human; details: 48 hours; 50, 100, 200 μM
Procedure: (§1) AsPC1, MDA231-WT cells were grown in a 100 mm tissue culture dish in RPMI medium containing serum, L-glutamine and antibiotics. At 60% confluency cells were treated with GIPC inhibitor peptides in a dose dependent and time dependent manner. Untreated and GIPC inhibitor peptide-treated AsPC1 and MDA231-WT cells were washed thrice with 10 ml of cold PBS, lysed with ice-cold RIPA buffer along with halt and PIC incubated on ice for 10 min, and centrifuged at 4° C. for 10 min. The expression of IGF-1R and EGFR protein was determined in untreated and peptides treated AsPC1 and MD231A cells by Western blot analysis according to standard protocols. Briefly, protein concentration in the cell lysates was measured using Bradford assay kit (Bio-rad). The proteins were loaded on a 10% SDS-PAGE gel for separation and transferred to a membrane. […]
(§2) Since GIPC association with IGF-1R is important for IGF-1R stability, the effects of CR1023 and CR1166 on the expression of both IGF-1R and EGFR were investigated. The levels of EGFR and IGF-1R in pancreatic cancer cells (AsPC1) and breast cancer cells (MDA-MB-231A-WT) were analyzed using Western blot analysis after treatment with GIPC inhibitor peptides or control peptides for 48 hours at different concentrations (50 μM, 100 μM and 200 μM) (FIG. 21, A and B). […]

[2] = target: T1, interaction between IGF-1R and GIPC (Homo sapiens, UniProt O14908); assay: Immunoprecipitation for GIPC, immunoblot against IGF-IR in AsPC1 cells; assay type: cell-based; details: for interaction between IGF-1R and GIPC: IP with GIPC antibody (N-19); for protein levels of IGF-IR: in vitro model
T1 construct: endogenous in cells; host or cells: AsPC1
T1 sequence (O14908 1-333): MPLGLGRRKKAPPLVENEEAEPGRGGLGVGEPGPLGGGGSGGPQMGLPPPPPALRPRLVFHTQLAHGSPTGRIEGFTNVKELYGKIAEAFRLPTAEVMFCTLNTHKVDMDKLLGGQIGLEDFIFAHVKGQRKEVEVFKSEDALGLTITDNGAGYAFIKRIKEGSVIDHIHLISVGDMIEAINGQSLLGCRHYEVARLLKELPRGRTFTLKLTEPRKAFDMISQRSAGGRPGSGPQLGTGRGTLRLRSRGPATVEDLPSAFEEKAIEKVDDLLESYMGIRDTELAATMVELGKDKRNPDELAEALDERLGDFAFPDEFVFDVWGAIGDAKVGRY
Procedure: AsPC1 cells were treated and lysate was collected in RIPA buffer. After immunoprecipitation with a GIPC antibody (N-19), western blot analysis was performed.

IGF-1R [3] = assay: Western blot of IGF-1R in MDA-MB-231A-WT cells; assay type: cell-based; details: 48 hours; 50, 100, 200 μM
Procedure: as §1, §2

IGF-1R [4] = assay: Western blot of IGF-1R in AsPC1 cells; assay type: cell-based, human; details: 48 hours; 50, 100, 200 μM
Procedure: as §1, §2

EGFR [5] = assay: Western blot of EGFR in MDA-MB-231A-WT cells; assay type: cell-based; details: 48 hours; 50, 100, 200 μM
Procedure: as §1, §2

[6] = test system: AsPC1 cells expressing GFP/luciferase; assay: Pancreatic tumor model, intratumoral injections; assay type: in vivo, female SCID mice; details: for pancreatic tumor growth over time compared to control peptides: intratumoral, alternate days, one month
Procedure: (§3) In vivo tumor model experiments using female SCID mice were performed to test the effectiveness of GIPC inhibitor peptides. The pancreatic tumor model was established by injecting 5×10^6 AsPC1 cells expressing GFP/luciferase resuspended in 50 μL of sterile PBS into the mouse right flank. Similarly, the breast tumor growth model was established in mice by injecting 2×10^6 MD-MBA-231-WT cells resuspended in 50 μL of sterile PBS into the mammary fat pad of the female SCID mice. When tumors volumes reached 50-100 mm^3, the GIPC inhibitor peptides and controls were intratumorally injected on alternate days over a period of one month. In order to monitor the pancreatic tumor burden, the mice were non-invasively imaged using the IVIS 200 Bioluminescence Imaging system (Xenon Corp.) before sacrificing. After bioluminescence imaging, the effect of the peptides on tumor growth (weight and volume) and EGFR and IGF-1R expression from tumors collected from different groups were examined. Tumors collected after sacrificing the SCID mice were measured by digital slide calipers using the (½ab^2) formula.

MDA-MB-231-WT cells [7] = assay: Apoptosis assay (annexin/PI); assay type: cell-based; details: for apoptosis induced: within 48 h; for induction of apoptosis: 50-200 μM
Procedure: (§4) MDA231-WT and AsPC1 ells were seeded into 6-well plates at a density of 4×10^5/2 ml of RPMI medium per well and grown overnight. Next day cells were treated with GIPC inhibitor peptides in a time dependent (48 h-96 h) and dose dependent manner (50-200 μM). After treatment with definite time, cells were extensively washed with PBS and tested with the Annexin V-FITC Apoptosis Detection Kit (Biovision, Cat. No. #K101-100) per the manufacturer's instructions.

[8] = target: T2, co-localization of GIPC and IGF-1R (Homo sapiens, UniProt O14908); assay: Duolink II co-localization of GIPC and IGF-1R in AsPC1 cells; assay type: cell-based
T2 construct: endogenous in cells; host or cells: AsPC1
T2 sequence (O14908 1-333): T1 sequence (O14908 1-333)
Procedure: Co-localization experiments were performed using a Duolink II Fluorescence kit to visualize the co-localization of GIPC and IGF-1R in control untreated AsPC1 cells (FIG. 23). Red fluorescence indicated the co-localization of GIPC and IGF-1R in AsPC1 cells.

MDA-MB-231-WT cells [9] = assay: MTS cell viability assay (Example 7); assay type: cell-based; details: for reduced cell viability observed: 50-200 μM
Procedure: (§5) To assess the cytotoxic and cell viability effects of GIPC inhibitor peptides, an MTS assay was conducted in pancreatic cancer cells (AsPC1) and breast cancer cells (MDA-MB-231-WT) using CR1023 and CR1166, as well as control peptides (CR1162, CR1164, CR2055 and CR2059) in a dose dependent manner (50-200 μM).

AsPC1 cells [10] = assay: MTS cell viability assay (Example 7); assay type: cell-based, human; details: for reduced cell viability observed: 50-200 μM
Procedure: as §5

AsPC1 cells [11] = assay: Apoptosis assay (annexin/PI); assay type: cell-based, human; details: for reduction in live AsPC1 cells / apoptosis induced: within 48 h; for induction of apoptosis: 50-200 μM
Procedure: as §4

MD-MBA-231-WT cells = assay: Breast tumor growth model, intratumoral injections; assay type: in vivo, female SCID mice
Procedure: as §3

Compound | EGFR expression compared to control peptides (EGFR [1]) | interaction between IGF-1R and GIPC [2] | protein levels of IGF-IR [2] | IGF-1R expression compared to control peptides (IGF-1R [3]) | IGF-1R expression compared to control peptides (IGF-1R [4]) | EGFR expression compared to control peptides (EGFR [5]) | pancreatic tumor growth over time compared to control peptides [6] | apoptosis induced (MDA-MB-231-WT cells [7]; 50 μM) [%] | apoptosis induced (MDA-MB-231-WT cells [7]; 200 μM) [%] | induction of apoptosis (MDA-MB-231-WT cells [7]) | red fluorescence (co-localization of GIPC and IGF-1R) compared to control [8] | reduced cell viability observed (MDA-MB-231-WT cells [9]) | reduced cell viability observed (AsPC1 cells [10]) | reduction in live AsPC1 cells (AsPC1 cells [11]; 50 μM) [%] | reduction in live AsPC1 cells (AsPC1 cells [11]; 200 μM) [%] | induction of apoptosis (AsPC1 cells [11]) | further results
CCCCCCCCCCCCCC(=O)N1CCC[C@H]1C(=O)N[C@@H](CO)C(=O)N[C@@H](CCC(N)=O)C(=O)N[C@@H](CO)C(=O)N[C@@H](CO)C(=O)N[C@@H](CO)C(=O)N[C@@H](CCC(=O)O)C(=O)N[C@@H](C)C(=O)O [CR1023, My-PSQSSSEA] (Myristoyl-PSQSSSEA-OH; C-terminus assumed) | reduced | interfere with the interaction | reduced protein levels of IGF-IR significantly | reduced | reduced | reduced | significantly suppressed the pancreatic tumor growth | ~30 | ~35 | significant induction of apoptosis | reduced red fluorescence | Reduced cell viability | Reduced cell viability | ~78 | ~62 | significant induction of apoptosis | –
CCCCCCCCCCCCCC(=O)N1CCC[C@H]1C(=O)N[C@@H](CO)C(=O)N[C@@H](CCC(N)=O)C(=O)N[C@@H](CO)C(=O)N[C@@H](CCCCNC(=O)c1ccc(Br)cc1)C(=O)N[C@@H](CO)C(=O)N[C@@H](CCCCNC(=O)c1ccc(Br)cc1)C(=O)N[C@@H](C)C(=O)O [CR1166, My-PSQSK(4-Br-ben)SK(4-Br-ben)A] (Myristoyl-PSQSK(Benzoyl(4-Br))SK(Benzoyl(4-Br))A-OH; C-terminus assumed) | reduced | interfere with the interaction | reduced protein levels of IGF-IR significantly | reduced | reduced | reduced | significantly suppressed the pancreatic tumor growth | ~54 | ~61 | significant induction of apoptosis | reduced red fluorescence | Reduced cell viability | Reduced cell viability | ~53 | ~35 | significant induction of apoptosis | EGFR expression in tumor compared to control CR2055 ([6]; pancreatic tumors): significant reduction; IGF-1R expression in tumor compared to control CR2055 ([6]; pancreatic tumors): significant reduction; tumor regression as compared to control DMSO-PBS-treated mice ([6]; pancreatic tumors): ~4.8 times; tumor regression as compared to mice treated with CR1023 ([6]; pancreatic tumors): ~2.3 times; tumor regression as compared to mice treated with CR2055 ([6]; pancreatic tumors): ~3.8 times; tumor regression as compared to mice treated with CR2059 ([6]; pancreatic tumors): ~3.9 times; cell viability reduced more compared to CR1023 (MDA-MB-231-WT cells [9]; at 50 μM, 100 μM, and 200 μM): 30-33%; cell viability reduced more compared to CR1023 (AsPC1 cells [10]; 50 μM): ~50%; cell viability reduced more compared to CR1023 (AsPC1 cells [10]; 100 μM): ~45%; cell viability reduced more compared to CR1023 (AsPC1 cells [10]; 200 μM): ~35%; breast tumor regression as compared to mice treated with CR1023 (MD-MBA-231-WT cells; CR1023 data not shown): ~1.4 times; IGF-1R expression in tumor compared to CR2059 (MD-MBA-231-WT cells; breast tumors): significant reduction; breast tumor growth over time compared to controls (MD-MBA-231-WT cells; intratumoral, alternate days): significantly suppressed breast tumor growth; breast tumor regression as compared to control DMSO-PBS-treated mice (MD-MBA-231-WT cells; mouse, in vivo): ~2.7 times; breast tumor regression as compared to mice treated with CR2055 (MD-MBA-231-WT cells; mouse, in vivo): ~2.1 times; breast tumor regression as compared to mice treated with CR2059 (MD-MBA-231-WT cells; mouse, in vivo): ~2.2 times; apoptosis induced (AsPC1 cells [11]; 50 μM): ~47%; apoptosis induced (AsPC1 cells [11]; 200 μM): ~65%
